Consider 28 compounds from patent US6214795A, “Peptide compounds useful for modulating FGF receptor activity” (Praecis Pharmaceuticals, Inc., priority 1996, dated 2001).

The target in one experiment is FGFR2-IIIC (Homo sapiens, UniProt P21802). Nature of the experiment: FGF receptor binding assay: inhibition of 125I-bFGF binding to FGF receptor. On the procedure: The ability of a peptide compound to bind to an FGF receptor can be determined using one or both of the receptor binding assays described in this example, which measure the ability of a test compound to inhibit the binding of radiolabeled bFGF to the FGF receptor. The first assay is a cell-based assay, utilizing FGF receptor-expressing cells. Cells expressing an FGF receptor are seeded on a 96 well plate (50,000 cells/well) and incubated overnight at 37° C., 5% CO2. The cells are then washed once with binding buffer (Dulbecco's Modified Eagle's Medium (DMEM) with HEPES, gelatin and heparin). A test peptide is diluted to the desired concentration in binding buffer with heparin (15 U/ml) and added to the cells (25 μl per well). ^125 I-bFGF (50,000 cpm/well; Amersham Life Sciences), diluted in binding buffer with heparin, is added to each well (25 μl per well so that final volume is 50 μl). The cells are incubated in a humidified chamber at 4° C. for 3 hours. The cells are washed twice with binding buffer to remove unbound material. The washed cells are then dissolved in 100 μl of 1N NaOH and counted in a gamma counter. The ability of a test compound to bind to FGFR is evidenced by the reduced binding of ^125 I-bFGF to the cells in the presence of the test compound as compared to the binding of ^125 I-bFGF to the cells in the absence of the test compound.
A second FGFR binding assay utilizes biotinylated soluble FGFR. Biotinylated FGFR is mixed in an eppendorf tube with ^125 I-bFGF and a test compound in binding buffer. The tubes are placed on an eppendorf roller at 4° C. for 1.5 hours. Magnetic streptavidin beads (CPG, Inc.) are prepared by washing twice with binding buffer. After the 1.5 hour incubation of the tubes, 15 μl of magnetic streptavidin beads are added to each tube and continued on the eppendorf roller for 10 minutes at 4° C. to allow the strepavidin to interact with the biotinylated FGFR. The tubes are removed from the roller and spun down in a microfuge for 2 minutes at 3000 rpm. Using magnets, the magnetic beads are washed twice with binding buffer. 100 μl of binding buffer is added to each tube and the contents are moved to a 12×75 mm test tube. The contents (i.e., strepavidin beads, with biotinylated FGFR and ^125 I-bFGF bound thereto) are counted in a Gamma counter. The ability of a test compound to bind to FGFR is evidenced by the reduced binding of ^125 I-bFGF to the biotinylated FGFR in the presence of the test compound as compared to the binding of ^125 I-bFGF to the biotinylated FGFR in the absence of the test compound.

A further experiment concerns NIH 3T3 cells. It counts as cell-based. As to the method: A second functional assay for FGFR is a proliferation assay, based on the fact that NIH 3T3 cells show enhanced growth in the presence of increasing concentrations of bFGF. NIH 3T3 cells are cultured (e.g., about 3 days) with bFGF (10 nM) in the presence or absence of a test peptide compound. Cell growth is quantitated using a standard method for detecting cell growth, such as tritiated thymidine incorporation or uptake of 3, ([…])2,5-diphenyl-tetrazolium bromide (MTT). MTT (commercially available from Sigma Chemical Co.) is a chromogenic substrate that is converted from yellow to blue in viable cells, which can be detected spectrophotometrically.

A further experiment concerns p42-MAP kinase. Nature of the experiment: Signal transduction assay: bFGF-induced phosphorylation/activation of MAP kinase in NIH 3T3 cells. It counts as cell-based. An excerpt: The effect of peptide compounds on the functional activity of an FGF receptor can be evaluated in one or both of the functional assays described in this example. The first assay is a signal transduction assay, exploiting the fact that bFGF binding to FGFR initiates a phosphorylation cascade that includes the phosphorylation of MAP kinase (MAP-K). Accordingly, the ability of a test compound to modulate bFGF-induced phosphorylation of MAP-K is examined. NIH 3T3 cells are synchronized to quiescence by growing in medium containing 0.5% fetal bovine serum (FBS) for 2 days. The cells are then shifted into fresh 0.5% FBS-containing medium for 2 hours to reduce the basal level of MAP-K phosphorylation before the experiment. Test peptide compounds are dissolved in fresh dimethyl sulfoxide (DMSO) to 100 mg/ml and series dilutions are made in DMSO. […] Phosphorylation of MAP-K in the 3T3 cells is initiated by incubating the cells with the bFGF-containing medium in the presence or absence of test peptide for 15 minutes at 37° C. The phosphorylation is stopped by washing with cells with PBS and lysing the cells with sodium […] (SDS)-containing buffer. Cell lysates are separated on 12% SDS polyacrylamide gels and the proteins are transferred onto PVDF membranes. Membrane-bound cellular proteins are probed with a rabbit anti-phosphoMAP-K antibodies, followed by a goat anti-rabbit secondary antibody, labeled with horse radish peroxidase. The blots are then detected by the enhanced chemiluminescence (ECL) method.

The mark [1] stands for this setting: Table 5 peptides (bFGF-binding peptides).
[2] abbreviates: Table 3 peptides, inhibition of bFGF binding to FGFR2-IIIC.
The mark [3] stands for this setting: Table 3 peptides, values given in mM.
Setting [4] is: Table 3 peptides, bFGF-induced MAP-K phosphorylation, read-out: MAP-K.

Like-named read-outs stand apart in the source and are kept apart here. Residues, ends and D or L forms follow the SMILES beside them. No end group written: not given here. *: point of attachment. Biotin = O=C1N[C@H]2[C@H](CS[C@H]2CCCCC(=O)*)N1

FGFR2-IIIC, sequence (P21802 22-377 limits assumed, species assumed): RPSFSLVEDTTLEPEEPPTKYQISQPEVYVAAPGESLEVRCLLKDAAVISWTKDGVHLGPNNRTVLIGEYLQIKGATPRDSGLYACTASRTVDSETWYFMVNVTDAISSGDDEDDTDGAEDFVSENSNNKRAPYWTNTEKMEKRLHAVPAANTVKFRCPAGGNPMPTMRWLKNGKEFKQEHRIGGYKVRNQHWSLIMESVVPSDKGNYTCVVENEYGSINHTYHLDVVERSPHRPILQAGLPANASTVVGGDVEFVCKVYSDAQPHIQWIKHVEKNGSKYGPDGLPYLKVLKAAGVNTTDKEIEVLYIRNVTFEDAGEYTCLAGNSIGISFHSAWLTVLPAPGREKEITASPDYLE

In the case of `CC(C)C[C@H](NC(=O)[C@H](CC(C)C)NC(=O)[C@H](CC(=O)O)NC(=O)[C@H](CC(=O)O)NC(=O)[C@H](Cc1c[nH]c2ccccc12)NC(=O)[C@H](CC(=O)O)NC(=O)[C@H](Cc1ccc(O)cc1)NC(=O)CNC(=O)[C@H](C)NC(=O)[C@H](C)NC(=O)CNC(=O)[C@H](CC(=O)O)NC(=O)[C@H](C)NC(=O)CCCC[C@@H]1SC[C@@H]2NC(=O)N[C@@H]21)C(=O)N[C@@H](CO)C(=O)NCC(=O)N[C@@H](C)C(=O)N[C@@H](C)C(N)=O` [Compound 476, Biotin-ADGAAGYDWDDLLSGAA-NH] (Biotin-ADGAAGYDWDDLLSGAA-NH2), the IC50 is over 0.1 mM on FGFR2-IIIC (setting [1]) and over 100 µM in the experiment on NIH 3T3 cells.
For the compound `CC(C)C[C@H](NC(=O)[C@H](CC(C)C)NC(=O)[C@H](CC(=O)O)NC(=O)[C@H](CC(=O)O)NC(=O)[C@H](Cc1c[nH]c2ccccc12)NC(=O)[C@H](CC(=O)O)NC(=O)[C@H](Cc1ccc(O)cc1)NC(=O)CNC(=O)[C@H](C)NC(=O)[C@H](C)NC(=O)CNC(=O)[C@H](CC(=O)O)NC(=O)[C@H](C)NC(=O)CCCC[C@@H]1SC[C@@H]2NC(=O)N[C@@H]21)C(=O)NCC(=O)NCC(=O)N[C@@H](C)C(=O)N[C@@H](C)C(N)=O` [Compound 478, Biotin-ADGAAGYDWDDLLGGAA-NH] (Biotin-ADGAAGYDWDDLLGGAA-NH2), the IC50 is over 0.1 mM at FGFR2-IIIC (setting [1]) and over 100 µM in the experiment with NIH 3T3 cells.
Regarding `CC(C)C[C@H](NC(=O)[C@H](CC(=O)O)NC(=O)[C@@H](NC(=O)[C@H](CS)NC(=O)CNC(=O)[C@H](C)NC(=O)[C@H](C)NC(=O)CNC(=O)[C@H](CC(=O)O)NC(=O)[C@H](C)N)C(C)C)C(=O)N[C@@H](Cc1ccc(O)cc1)C(=O)N[C@@H](Cc1c[nH]cn1)C(=O)N[C@@H](Cc1ccc(O)cc1)C(=O)N[C@H](C(=O)N[C@@H](Cc1ccc(O)cc1)C(=O)N[C@@H](CS)C(=O)NCC(=O)NCC(=O)N[C@@H](C)C(=O)N[C@@H](C)C(N)=O)C(C)C` [Compound 507] (H-ADGAAGCVDLYHYVYCGGAA-NH2), the IC50 in the experiment with NIH 3T3 cells was in the range of 10 to 100 µM. Moreover, the “Effect on proliferative activity of bFGF” value with NIH 3T3 cells (NIH 3T3 cells) was “antagonists of the proliferative activity of bFGF”.
In the experiment with NIH 3T3 cells, `CC(=O)NCC(=O)N[C@@H](CS)C(=O)N[C@H](C(=O)N[C@@H](CC(C)C)C(=O)N[C@@H](CC(C)C)C(=O)N[C@@H](Cc1ccc(O)cc1)C(=O)N[C@@H](CC(=O)O)C(=O)N[C@@H](CCC(=O)O)C(=O)N[C@@H](CCCNC(=N)N)C(=O)N[C@H](C(=O)N[C@@H](CS)C(=O)NCC(N)=O)[C@@H](C)O)C(C)C` [Compound 513, Acetyl-GCVLLYDERTCG-NH] (Ac-GCVLLYDERTCG-NH2) displayed an IC50 of over 100 µM.
For the compound `CC(=O)NCC(=O)N[C@@H](CS)C(=O)N[C@H](C(=O)N[C@@H](CC(=O)O)C(=O)N[C@@H](CC(C)C)C(=O)N[C@@H](Cc1ccc(O)cc1)C(=O)N[C@@H](Cc1c[nH]cn1)C(=O)N[C@@H](Cc1ccc(O)cc1)C(=O)N[C@H](C(=O)N[C@@H](Cc1ccc(O)cc1)C(=O)N[C@@H](CS)C(=O)NCC(N)=O)C(C)C)C(C)C` [Compound 514, Acetyl-GCVDLYHYVYCG-NH] (Ac-GCVDLYHYVYCG-NH2), the IC50 was about 50 µM in the experiment on p42-MAP kinase (Table 5 peptides, read-out: MAP-K) and 10 to 100 µM in the experiment with NIH 3T3 cells. Moreover, in the experiment on NIH 3T3 cells (NIH 3T3 cells), the “Effect on proliferative activity of bFGF” value is recorded as “antagonists of the proliferative activity of bFGF”.
As for “ADGAAGSWGDWERSGDWFGGAA-NH2 [Compound 509]”, the values for the IC50 at FGFR2-IIIC (setting [1]) and in the experiment with NIH 3T3 cells were over 0.1 mM and over 100 µM, respectively.
Take “ADGAAGYDWDDLLGGAA-NH2 [Compound 477, H-ADGAAGYDWDDLLGGAA-NH*TFA]”: the IC50 is over 0.1 mM at FGFR2-IIIC (setting [1]) and over 100 µM with NIH 3T3 cells.
The like results for “ADGAAGYDWDDLLSGAA-NH2 [Compound 475, H-ADGAAGYDWDDLLSGAA-NH*TFA]” were, in that order, over 0.1 mM and over 100 µM.
On FGFR2-IIIC (setting [2]), “AHYLRQYLMRFR-NH2 [Compound 673, H-AHYLRQYLMRFR-NH*TFA]” yielded an IC50 of about 0.008 mM.
For “Ac-GHDGEMYG-OH [Compound 660, Acetyl-GHDGEMYG-OH]”, the IC50 at FGFR2-IIIC (setting [3]) was over 1 mM.
For the compound “Ac-GSWGDWERSGDWFG-NH2 [Compound 512, Acetyl-GSWGDWERSGDWFG-NH]”, the IC50 on FGFR2-IIIC (setting [1]) was over 0.1 mM; with NIH 3T3 cells, over 100 µM.
Take “GAHNLRQYLMRFLG [Compound 623, H-GAHNLRQYLMRFLG-OH*TFA]”: the IC50 in the experiment with p42-MAP kinase (setting [4]) is about 50 µM; at FGFR2-IIIC (setting [2]) it was about 0.12 mM; in the experiment on NIH 3T3 cells, about 100 µM. The “Effect on activation of MAP-K by bFGF” value in the experiment on p42-MAP kinase (increasing concentrations of compound) is on record as “clearly antagonized”.
Take “GAHYLRQYLMRFLG-NH2 [Compound 658, H-GAHYLRQYLMRFLG-NH*TFA]”: the IC50 was about 3 µM in the experiment on p42-MAP kinase (1 nM bFGF, FIG. 5, read-out: Concentration that half maximally antagonizes bFGF activation of MAP-K); about 1 µM in the experiment with p42-MAP kinase (setting [4]); about 0.008 mM on FGFR2-IIIC (setting [2]); 40 µM in the experiment on NIH 3T3 cells (NIH 3T3 cells, 10 nM bFGF, FIG. 6, read-out: Concentration that half maximally reduces bFGF-induced proliferation).
“GAHYLRQYLMRFRG-NH2 [Compound 668, H-GAHYLRQYLMRFRG-NH*TFA]” displayed an IC50 at FGFR2-IIIC (setting [2]) of about 0.003 mM.
At FGFR2-IIIC (setting [2]), “GAHYLRQYMMRFLG-NH2 [Compound 669, H-GAHYLRQYMMRFLG-NH*TFA]” gave an IC50 of about 0.02 mM.
The compound “GDVFLSMYQFSVIG [Compound 622, H-GDVFLSMYQFSVIG-OH*TFA]” had an IC50 on FGFR2-IIIC (setting [2]) of over 0.1 mM.
Same read-out and setting: the result for “GFLGKYMESLMRMG-NH2 [Compound 659, H-GFLGKYMESLMRMG-NH*TFA]” reads about 0.3 mM.
Still for that read-out and setting: the result for “GFLMMYMMG [Compound 566, H-GFLMMYMMG-OH*TFA]” reads over 0.1 mM.
At FGFR2-IIIC (setting [2]), “GKALEWYKSLMRMG-NH2 [Compound 661, H-GKALEWYKSLMRMG-NH*TFA]” displayed an IC50 of about 0.3 mM.
Compound “GSLMRMG-NH2 [Compound 663, H-GSLMRMG-NH*TFA]” yielded an IC50 on FGFR2-IIIC (setting [3]) of over 1 mM.
The compound “GYFQYMALYG [Compound 567, H-GYFQYMALYG-OH*TFA]” registered an IC50 at FGFR2-IIIC (setting [2]) of over 0.1 mM.
The same measure, in the same setting: for “GYLAQYMARG-NH2 [Compound 662, H-GYLAQYMARG-NH*TFA]” the value was about 0.3 mM.
Still for that read-out and setting: for “GYLYLYMVG [Compound 656, H-GYLYLYMVG-OH*TFA]” the value was over 0.1 mM; for “GYYLLWMVG [Compound 564, H-GYYLLWMVG-OH*TFA]”, over 0.1 mM; for “HYLRQYLMRFR-NH2 [Compound 672, H-HYLRQYLMRFR-NH*TFA]”, about 0.008 mM.
Regarding “LRQYLMRFR-NH2 [Compound 670, H-LRQYLMRFR-NH*TFA]”, the IC50 on FGFR2-IIIC (setting [2]) was about 0.12 mM.
On to “YLRQYLMRFR-NH2 [Compound 671, H-YLRQYLMRFR-NH*TFA]”, for which, on FGFR2-IIIC (setting [2]), the “Binding IC50” value is “does not appear to further increase the IC50” and the IC50 is about 0.008 mM.
For “bFGF: basic fibroblast growth factor, the FGF receptor ligand used as stimulus and unlabeled competitor [reference compound]”, the “Activation of MAP-K” value in the experiment with p42-MAP kinase (1 and 10 nM, without test peptide, FIG. 3) was 40-60%.
